Assay results: patent US8772500B2, “TRPV3 modulators” (AbbVie Inc., priority 2011, dated 2014)

Experiments:
[1] = molecular target: T1, human TRPV3 (Homo sapiens, UniProt Q8NET8); test: In vitro antagonism of recombinant human TRPV3 activation (FLIPR Tetra calcium assay, 2-APB as agonist); type: cell-based; settings: HEK293 cells stably expressing human TRPV3; 2-APB 80 μM; range class; read-out: IC50 (reported range)
T1 construct: expressed in transfected cells
T1 sequence (Q8NET8 1-790): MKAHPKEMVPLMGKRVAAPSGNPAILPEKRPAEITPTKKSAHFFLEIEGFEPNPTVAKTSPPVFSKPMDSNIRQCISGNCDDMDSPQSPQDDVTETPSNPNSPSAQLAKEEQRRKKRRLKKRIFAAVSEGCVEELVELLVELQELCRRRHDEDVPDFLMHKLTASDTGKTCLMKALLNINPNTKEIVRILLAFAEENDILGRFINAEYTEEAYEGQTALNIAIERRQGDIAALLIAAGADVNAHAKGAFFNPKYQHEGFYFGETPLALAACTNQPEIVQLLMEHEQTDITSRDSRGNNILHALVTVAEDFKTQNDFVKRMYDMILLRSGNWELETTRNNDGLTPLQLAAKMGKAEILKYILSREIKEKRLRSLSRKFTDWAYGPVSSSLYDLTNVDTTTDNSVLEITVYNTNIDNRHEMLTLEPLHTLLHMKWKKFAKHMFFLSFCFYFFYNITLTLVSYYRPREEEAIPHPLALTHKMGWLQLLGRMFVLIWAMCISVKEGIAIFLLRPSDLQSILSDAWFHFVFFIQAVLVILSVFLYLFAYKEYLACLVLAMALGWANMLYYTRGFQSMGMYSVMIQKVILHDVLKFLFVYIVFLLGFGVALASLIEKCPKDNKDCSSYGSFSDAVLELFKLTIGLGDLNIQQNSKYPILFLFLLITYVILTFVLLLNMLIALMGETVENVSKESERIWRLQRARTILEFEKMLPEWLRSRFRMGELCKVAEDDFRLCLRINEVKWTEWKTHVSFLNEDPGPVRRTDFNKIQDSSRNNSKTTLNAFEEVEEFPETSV
In short: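 Readout is FLIPR fluorescence, max minus min as percent of uninhibited 2-APB response, giving IC50 (usually mean of ≥2 runs). Stable human TRPV3 HEK293 cells, Calcium-4 dye-loaded, got test compound then, three minutes later, 80 μM 2-APB (EC80); run length 10 min.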

[2] = In vitro human microsomal stability assay; type: in vitro ADME; settings: human, 0.5 h, 0.5 μM, pH 7.4
In short: (§1)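 Metabolic stability was measured in liver microsomes from Sprague-Dawley rat or from human. Incubations ran at 37 °C with NADPH as cofactor, and NADPH was also added to the time-zero samples.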

[3] = In vitro rat microsomal stability assay; type: in vitro ADME, rat (Sprague-Dawley); settings: Sprague-Dawley, rat, 0.5 h, 0.5 μM, pH 7.4
In short: as §1

IC50 [1] [µM] | HUMAN MICROSOMAL STABILITY (% REMAINING AFTER 30 MINUTES) [2] [%] | RAT MICROSOMAL STABILITY (% REMAINING AFTER 30 MINUTES) [3] [%] | Structure (SMILES)
1.1 to 5 | 31 | 23 | OC(c1ccccn1)C1(c2cccc(OC(F)(F)F)c2)CCOCC1 (stereo not drawn) [Example 66, pyridin-2-yl{4-[3-(trifluoromethoxy)phenyl]tetrahydro-2H-pyran-4-yl}-methanol]
0.501 to 1 | 44 | 0.74 | OC(CC1(c2ccc(C(F)(F)F)cc2)CCC1)c1ccccn1 (stereo not drawn) [Example 75, 1-(pyridin-2-yl)-2-{1-[4-(trifluoromethyl)phenyl]cyclobutyl}ethanol]
0.501 to 1 | 11 | 0.94 | OC(CC1(c2cccc(OC(F)(F)F)c2)CCC1)c1ccccn1 (stereo not drawn) [Example 77, 1-(pyridin-2-yl)-2-{1-[3-(trifluoromethoxy)phenyl]cyclobutyl}ethanol]
5.1 to 20 | 82 | 76 | OC(c1ccccn1)C1(c2ccc(C(F)(F)F)nc2)CCC1 (stereo not drawn) [Example 85, pyridin-2-yl{1-[6-(trifluoromethyl)pyridin-3-yl]cyclobutyl}methanol]
1.1 to 5 | 70 | 4.3 | OC(c1ccccn1)C1(c2ccc(C(F)(F)F)cc2)CCCO1 (stereo not drawn) [Example 89, (syn)-pyridin-2-yl{2-[4-(trifluoromethyl)phenyl]tetrahydrofuran-2-yl}-methanol]
0.05 to 0.5 | 35 | <0.01 | Cc1ccccc1C1(C(O)c2ccccn2)CCCO1 (stereo not drawn) [Example 90, [2-(2-methylphenyl)tetrahydrofuran-2-yl](pyridin-2-yl)methanol]
0.05 to 0.5 | 2.7 | 0.23 | OC(c1ccccn1)C1(c2cccc(OC(F)(F)F)c2)CCCO1 (stereo not drawn) [Example 92, (anti)-pyridin-2-yl{2-[3-(trifluoromethoxy)phenyl]tetrahydrofuran-2-yl}-methanol]

The remaining lines, values behind:

Structure (SMILES) | IC50 [1] [µM] | HUMAN MICROSOMAL STABILITY (% REMAINING AFTER 30 MINUTES) [2] [%] | RAT MICROSOMAL STABILITY (% REMAINING AFTER 30 MINUTES) [3] [%]
OC(c1ccccn1)C1(c2ccc(OC(F)(F)F)cc2)CCOCC1 (stereo not drawn) [Example 67, pyridin-2-yl{4-[4-(trifluoromethoxy)phenyl]tetrahydro-2H-pyran-4-yl}-methanol] | 1.1 to 5 | 58 | 47
OC(CC1(c2cccc(C(F)(F)F)c2)CCC1)c1ccccn1 (stereo not drawn) [Example 74, 1-(pyridin-2-yl)-2-{1-[3-(trifluoromethyl)phenyl]cyclobutyl}ethanol] | 0.05 to 0.5 | 6.8 | 0.45
OC(CC1(c2ccc(OC(F)(F)F)cc2)CCC1)c1ccccn1 (stereo not drawn) [Example 76, 1-(pyridin-2-yl)-2-{1-[4-(trifluoromethoxy)phenyl]cyclobutyl}ethanol] | 0.501 to 1 | 39 | 0.47
OC(c1ccccn1)C1(c2ccc(Cl)c(Cl)c2)CC(F)(F)C1 (stereo not drawn) [Example 82, [1-(3,4-dichlorophenyl)-3,3-difluorocyclobutyl](pyridin-2-yl)methanol] | 0.501 to 1 | 35 | 16
OC(c1ccccn1)C1(c2ccc(C(F)(F)F)cc2)CCCO1 (stereo not drawn) [Example 88, (anti)-pyridin-2-yl{2-[4-(trifluoromethyl)phenyl]tetrahydrofuran-2-yl}-methanol] | 0.05 to 0.5 | 38 | 7.0
Cc1cccc(C2(C(O)c3ccccn3)CCCO2)c1 (stereo not drawn) [Example 91, [2-(3-methylphenyl)tetrahydrofuran-2-yl](pyridin-2-yl)methanol] | 0.05 to 0.5 | 46 | 1.0
